Measurements reported in US20220211630A1, “SOLID NANOPARTICLE FORMULATION OF WATER INSOLUBLE PHARMACEUTICAL SUBSTANCES WITH REDUCED OSTWALD RIPENING AND IMMEDIATE DRUG RELEASE FOLLOWING INTRAVENOUS ADMINISTRATION” (priority 2019, published 2022).
≈ marks a conversion by molar mass, not a printed value. Read-outs that look alike come from different tables or passages of the source.

Assays:
[1] = target: human CB1 receptors (Homo sapiens, UniProt P21554); settings: read-out: Affinity; cited from earlier work
[2] = cited from earlier work
[3] = oral, human gastrointestinal tract; cited from earlier work
[4] = target: human CB2 receptors (Homo sapiens, UniProt P34972); settings: read-out: Affinity; cited from earlier work
[5] = Drug solubility in supernatant of reconstituted suspension after ultracentrifugation (HPLC); format: physicochemical; settings: room temperature
Method: The quantities of docetaxel, rapamycin and 17-AAG and human albumin in the supernatant were measured by high performance liquid chromatography (HPLC) and the results are summarized in Table 9.
The quantities of ixabepilone and rapamycin in the supernatant were measured by high performance liquid chromatography (HPLC) and the results are summarized in Table 18.

[6] = LBI-1103 (Lot RAD002) reconstituted suspension (5 mg/mL Docetaxel; 5 mg/mL Rapamycin and 10 mg/mL 17-AAG), 87,000 rpm 1 hour
[7] = LBI-0728 (Lot CRX001) reconstituted suspension (2 mg/mL Ixabepilone and 5 mg/mL Rapamycin), 87,000 rpm 1 hour

Chain of human CB1 receptors (P21554 whole entry): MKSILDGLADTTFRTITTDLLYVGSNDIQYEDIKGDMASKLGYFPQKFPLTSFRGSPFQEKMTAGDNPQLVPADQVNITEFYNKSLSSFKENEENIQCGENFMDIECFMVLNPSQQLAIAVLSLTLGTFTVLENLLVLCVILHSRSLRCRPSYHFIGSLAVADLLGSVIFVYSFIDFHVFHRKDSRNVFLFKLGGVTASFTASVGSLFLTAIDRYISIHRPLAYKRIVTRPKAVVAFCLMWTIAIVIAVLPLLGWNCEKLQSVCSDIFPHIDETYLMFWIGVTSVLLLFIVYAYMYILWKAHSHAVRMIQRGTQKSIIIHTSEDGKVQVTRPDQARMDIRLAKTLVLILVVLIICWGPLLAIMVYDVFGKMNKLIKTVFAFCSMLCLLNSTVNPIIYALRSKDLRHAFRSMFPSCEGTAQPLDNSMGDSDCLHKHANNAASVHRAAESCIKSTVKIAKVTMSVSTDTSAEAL
Chain of human CB2 receptors (P34972 whole entry): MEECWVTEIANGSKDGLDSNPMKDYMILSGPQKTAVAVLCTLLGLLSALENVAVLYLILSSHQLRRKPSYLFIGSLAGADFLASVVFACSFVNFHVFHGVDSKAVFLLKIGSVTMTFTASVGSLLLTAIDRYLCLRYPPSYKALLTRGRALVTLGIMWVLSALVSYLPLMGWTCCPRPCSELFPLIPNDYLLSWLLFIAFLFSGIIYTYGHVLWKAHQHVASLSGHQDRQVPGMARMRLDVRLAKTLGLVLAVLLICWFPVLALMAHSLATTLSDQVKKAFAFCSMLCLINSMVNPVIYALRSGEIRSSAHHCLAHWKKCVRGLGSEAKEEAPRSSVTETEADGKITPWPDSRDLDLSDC

SMILES | Solubility in water [2] | solubility [5, 6] [µg/mL] | other results
CCCCCCC(C)(C)c1cc(O)c2c(c1)OC(C)(C)C1CCC(=O)CC21 (racemic) [Nabilone, (±)-trans-3-(1,1-dimethylheptyl)-6,6a,7,8,10,10a-hexahydro-1-hydroxy-6-6-dimethyl-9H-dibenzo[b,d]pyran-9-one] | – | – | Ki [1]: 2.2 nM; Solubility in water ([2]; pH values ranging from 1.2 to 7.0): less than 0.5 mg/L; Absorption when administered orally [3]: completely absorbed; Ki [4]: 1.8 nM
CC(=O)O[C@@]12CO[C@@H]1C[C@H](O)[C@@]1(C)C(=O)[C@H](O)C3=C(C)[C@@H](OC(=O)[C@H](O)[C@@H](NC(=O)OC(C)(C)C)c4ccccc4)C[C@@](O)([C@@H](OC(=O)c4ccccc4)[C@H]21)C3(C)C [Docetaxel] | about 14 mg/L | 114 | –
CO[C@H]1C[C@@H]2CC[C@@H](C)[C@@](O)(O2)C(=O)C(=O)N2CCCC[C@H]2C(=O)O[C@H]([C@H](C)C[C@@H]2CC[C@@H](OCCO)[C@H](OC)C2)CC(=O)[C@H](C)/C=C(\C)[C@@H](O)[C@@H](OC)C(=O)[C@H](C)C[C@H](C)/C=C/C=C/C=C/1C [Everolimus, 40-O-(2-Hydroxy)ethyl rapamycin] | – | – | solubility ([5]; LBI-0609 (Lot CEP002) reconstituted suspension (X mg/mL Everolimus and 5 mg/mL Paclitaxel), 87,000 rpm 1 hour): 14 µg/mL (≈ 14.6 µM)
C=CCNC1=C2C[C@@H](C)C[C@H](OC)[C@H](O)[C@@H](C)/C=C(\C)[C@H](OC(N)=O)[C@@H](OC)/C=C\C=C(/C)C(=O)NC(=CC1=O)C2=O [Example 17AAG, 17-allylaminogeldanamycin] | – | 108 | –
C/C(=C\c1csc(C)n1)[C@@H]1C[C@@H]2O[C@]2(C)CCC[C@H](C)[C@H](O)[C@@H](C)C(=O)C(C)(C)[C@@H](O)CC(=O)N1 [Ixabepilone] | about 3.5 mg/L | – | solubility [5, 7]: 407 µg/mL
CC(=O)O[C@H]1C(=O)[C@@]2(C)[C@H]([C@H](OC(=O)c3ccccc3)[C@]3(O)C[C@H](OC(=O)[C@H](O)[C@@H](NC(=O)c4ccccc4)c4ccccc4)C(C)=C1C3(C)C)[C@]1(OC(C)=O)CO[C@@H]1C[C@@H]2O [Paclitaxel] | about 0.4 mg/L | – | Drug Solubility in Supernatant ([5]; LBI-0609 (Lot CEP002) reconstituted suspension (Everolimus and 5 mg/mL Paclitaxel), 87,000 rpm 1 hour): 82 µg/mL
CO[C@H]1C[C@@H]2CC[C@@H](C)[C@@](O)(O2)C(=O)C(=O)N2CCCC[C@H]2C(=O)O[C@H]([C@H](C)C[C@@H]2CC[C@@H](O)[C@H](OC)C2)CC(=O)[C@H](C)/C=C(\C)[C@@H](O)[C@@H](OC)C(=O)[C@H](C)C[C@H](C)/C=C/C=C/C=C/1C [Rapamycin] | insoluble in water | 19 | solubility [5, 7]: 22 µg/mL
CO[C@H]1C(=O)[C@]2(C)[C@@H](OC)C[C@H]3OC[C@@]3(OC(C)=O)[C@H]2[C@H](OC(=O)c2ccccc2)[C@]2(O)C[C@H](OC(=O)[C@H](O)[C@@H](NC(=O)OC(C)(C)C)c3ccccc3)C(C)=C1C2(C)C [cabazitaxel] | about 8 mg/L | – | –
